Experimental findings from publication PMC11385044 (Chemical Science, 2024) are described below.

Molecules are shown by their SMILES. *1 amine or outer side, *2 acyl side, *3 side chain or, on linkers, in order; H or OH if unused. Where a SMILES comes first, the peptide text is derived from it. Bridges are numbered along the chain shown (N, C = ends). Roman numbers before positions name the chains, in order. The star is where a group is joined. FITC = O=C1OC2(c3ccc(O)cc3Oc3cc(O)ccc32)c2ccc(NC(=S)*)cc21; X1 = O=C(CCc1cn(CC(=O)[*:2])nn1)[*:1]

In the assay the target is ubiquitin (Ub) (Homo sapiens, UniProt P0CG47). The assay can be described thus: Fluorescence polarization. In kind it is binding. The settings on record: comparison with native UIM-1 peptide 12.

For the compound `CC[C@H](C)[C@H](NC(=O)[C@H](C)NC(=O)[C@@H](NC(=O)[C@H](CCC(=O)O)NC(=O)[C@@H](NC(=O)[C@H](CCC(=O)O)NC(=O)[C@H](CC(C)C)NC(=O)[C@H](CCC(=O)O)NC(=O)[C@H](CCC(=O)O)NC(=O)[C@@H](NC(=O)[C@H](CCC(=O)O)NC(=O)[C@H](CCC(N)=O)NC(=O)[C@H](CCC(=O)O)NC(=O)CCc1cn(CC(=O)N[C@@H](CCCCN)C(=O)N[C@@H](CCC(N)=O)C(=O)N[C@@H](CCCCN)C(=O)N[C@H](C(=O)N[C@@H](C)C(=O)N[C@@H](C)C(=O)N[C@@H](CC(C)C)C(=O)N[C@@H](CCCCN)C(=O)N[C@@H](CCCCNC(=S)Nc2ccc3c(c2)C(=O)OC32c3ccc(O)cc3Oc3cc(O)ccc32)C(=O)N[C@@H](CCCCN)C(=O)N[C@H](C(=O)N[C@@H](C)C(=O)N[C@@H](C)C(=O)N[C@@H](CC(C)C)C(=O)N[C@@H](CCCCN)C(=O)N[C@@H](CCC(N)=O)C(=O)N[C@@H](CCCCN)C(=O)N[C@H](C(=O)N[C@@H](CCC(N)=O)C(=O)NCC(N)=O)[C@@H](C)CC)[C@@H](C)CC)[C@@H](C)CC)nn1)[C@@H](C)CC)[C@@H](C)CC)[C@@H](C)CC)C(=O)N[C@@H](CC(C)C)C(=O)N[C@@H](CC(C)C)C(=O)N[C@@H](CO)C(=O)N[C@@H](CCC(=O)O)C(=O)N[C@H](C(=O)N[C@@H](CCC(=O)O)C(=O)NCC(N)=O)[C@@H](C)CC` [Peptide 10] (I: EQEIEELEIEIAILLSEIEG-NH2 / II: KQKIAALKK(FITC)KIAALKQKIQG-NH2; linker I:N-II:N via X1), the “Ub binding relative to native UIM-1 peptide” value is given as “binds more strongly than the native UIM-1 peptide”.
